Source: patent US20240148821A1, “PHARMACEUTICAL USE OF CYCLIC PEPTIDE COMPOUND” (CHUGAI SEIYAKU KABUSHIKI KAISHA, priority 2021, published 2024)
Numbered stars: 1 amine (or outer) side, 2 acyl side, 3 side chain; on linkers, the order of the positions; unused ones are H or OH. Bridge positions count the residues as written; N and C are the ends. Square brackets hold non-standard residues; d marks the D form. Peptide text beside a SMILES is read from it. * marks the point of attachment. hPhe(3-Cl-4-CF3) = N[C@@H](CCc1ccc(C(F)(F)F)c(Cl)c1)C(=O)O; NMePhe(4-Me) = CN[C@@H](Cc1ccc(C)cc1)C(=O)O; NMe3Pal = CN[C@@H](Cc1cccnc1)C(=O)O; NMeCha = CN[C@@H](CC1CCCCC1)C(=O)O; X76 = C=CC[C@H](CC(=O)[*:2])N[*:1]; NMeAhp(2) = CCCCC[C@H](NC)C(=O)O; NMeChg = CN[C@H](C(=O)O)C1CCCCC1; NMeI = CC[C@H](C)[C@H](NC)C(=O)O; N(CH2CH2)2CF2 = FC1(F)CCN(*)CC1; NMeD = CN[C@@H](CC(=O)O)C(=O)O; NMeL = CN[C@@H](CC(C)C)C(=O)O; NMeV = CN[C@H](C(=O)O)C(C)C; d(β3hA) = C[C@@H](N)CC(=O)O; NMeS = CN[C@@H](CO)C(=O)O; NMeA = CN[C@@H](C)C(=O)O; Piperidide = C1CCN(*)CC1; Pyrrolidide = C1CCN(*)C1; Ac5c = NC1(C(=O)O)CCCC1; Aze = O=C(O)[C@@H]1CCN1; Cyclopropyl = C1CC1*; Sar = CNCC(=O)O

target: protein-protein interaction between Kras and SOS1 (biotin-tagged human Kras loaded with GDP, His-tagged human SOS1) (Homo sapiens (Human), UniProt P01116, G12D); assay: Protein-protein interaction inhibition between Kras and SOS1 (KrasG12D-SOS PPI) using AlphaScreen; assay type: biochemical; settings: AlphaScreen; biotin-tagged human Kras loaded with GDP, His-tagged human SOS1; read-out: KRAS G12D-SOS PPI IC50;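 further: kras produced in E. coli, Ni-coupled donor beads and streptavidin acceptor beads, excitation 680 nm with emission detected at 520–620 nm via singlet oxygen transfer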

| Compound | IC50 [nM] |
| --- | --- |
| CC[C@H](C)[C@@H]1NC(=O)[C@H](C)N(C)C(=O)C[C@@H](C(=O)N2CCCCC2)N(C)C(=O)[C@H](C2CCCCC2)N(C)C(=O)C2(CCCC2)NC(=O)[C@H](Cc2cccnc2)N(C)C(=O)[C@H](CCc2ccc(C(F)(F)F)c(Cl)c2)NC(=O)CN(C)C(=O)[C@H](CC2CCCCC2)N(C)C(=O)CN(C)C(=O)CN(C)C1=O [Compound 1012] ([NMeA]I[Sar][Sar][NMeCha][Sar][hPhe(3-Cl-4-CF3)][NMe3Pal][Ac5c][NMeChg][NMeD]-Piperidide; lactam N-11) | 1.2 |
| CCCCC[C@H]1C(=O)N[C@@H]([C@@H](C)CC)C(=O)N(C)[C@@H](C)C(=O)N2CC[C@H]2C(=O)N(C)[C@@H](CC2CCCCC2)C(=O)N(C)CC(=O)N[C@@H](CCc2ccc(C(F)(F)F)c(Cl)c2)C(=O)N2CCC[C@H]2C(=O)NC2(CCCC2)C(=O)N(C)[C@@H](C(C)C)C(=O)N(C)[C@H](C(=O)N2CCCCC2)CC(=O)N1C [Compound 1705] ([NMeAhp(2)]I[NMeA][Aze][NMeCha][Sar][hPhe(3-Cl-4-CF3)]P[Ac5c][NMeV][NMeD]-Piperidide; lactam N-11) | 9.8 |
| C=CC[C@@H]1CC(=O)N(C)[C@@H](CC(C)C)C(=O)N[C@@H]([C@@H](C)CC)C(=O)N(C)[C@@H](C)C(=O)N2CC[C@H]2C(=O)N(C)[C@@H](Cc2ccc(C)cc2)C(=O)N(C)CC(=O)N[C@@H](CCc2ccc(C(F)(F)F)c(Cl)c2)C(=O)N2CCC[C@H]2C(=O)NC2(CCCC2)C(=O)N(C)[C@@H]([C@@H](C)CC)C(=O)N1 [Compound 1883] (cyclo([Ac5c][NMeI][X76][NMeL]I[NMeA][Aze][NMePhe(4-Me)][Sar][hPhe(3-Cl-4-CF3)]P)) | 65 |
| CC[C@H](C)[C@@H]1NC(=O)[C@H](CC(C)C)N(C)C(=O)C[C@@H](C(=O)N2CCCC2)NC(=O)[C@H]([C@@H](C)CC)N(C)C(=O)C2(CCCC2)NC(=O)[C@@H]2CCCN2C(=O)[C@H](CCc2ccc(C(F)(F)F)c(Cl)c2)NC(=O)CN(C)C(=O)[C@H](CC2CCCCC2)N(C)C(=O)[C@@H]2CCN2C(=O)[C@H](C)N(C)C1=O [Compound 453] ([NMeL]I[NMeA][Aze][NMeCha][Sar][hPhe(3-Cl-4-CF3)]P[Ac5c][NMeI]D-Pyrrolidide; lactam N-11) | 17 |
| CC[C@H](C)[C@@H]1NC(=O)[C@H](CC(C)C)N(C)C(=O)C[C@@H](C(=O)N(C)C)N(C)C(=O)[C@H](C2CCCCC2)N(C)C(=O)C2(CCCC2)NC(=O)[C@@H]2CCCN2C(=O)[C@H](CCc2ccc(C(F)(F)F)c(Cl)c2)NC(=O)CN(C)C(=O)[C@H](CC2CCCCC2)N(C)C(=O)[C@@H]2CCN2C(=O)[C@H](C)N(C)C1=O [Compound 1675] ([NMeL]I[NMeA][Aze][NMeCha][Sar][hPhe(3-Cl-4-CF3)]P[Ac5c][NMeChg][NMeD]-NMe2; lactam N-11) | 1.2 |
| CC[C@H](C)[C@@H]1NC(=O)[C@H](CC(C)C)N(C)C(=O)C[C@@H](C)NC(=O)[C@H](C(C)C)N(C)C(=O)C2(CCCC2)NC(=O)[C@@H]2CCCN2C(=O)[C@H](CCc2ccc(C(F)(F)F)c(Cl)c2)NC(=O)CN(C)C(=O)[C@H](CC2CCCCC2)N(C)C(=O)[C@@H]2CCN2C(=O)[C@H](COC2CC2)N(C)C1=O [Compound 1102] (cyclo([Ac5c][NMeV][d(β3hA)][NMeL]I[NMeS](Cyclopropyl)[Aze][NMeCha][Sar][hPhe(3-Cl-4-CF3)]P)) | 160 |
| CC[C@H](C)[C@@H]1NC(=O)[C@H](CC(C)C)N(C)C(=O)C[C@@H](C(=O)N2CCCCC2)NC(=O)[C@H](C(C)C)N(C)C(=O)C2(CCCC2)NC(=O)[C@H](CC(=O)N2CCC(F)(F)CC2)N(C)C(=O)[C@H](CCc2ccc(C(F)(F)F)c(Cl)c2)NC(=O)CN(C)C(=O)[C@H](CC2CCCCC2)N(C)C(=O)CN(C)C(=O)CN(C)C1=O [Compound 3] ([NMeL]I[Sar][Sar][NMeCha][Sar][hPhe(3-Cl-4-CF3)][NMeD](N(CH2CH2)2CF2)[Ac5c][NMeV]D-Piperidide; lactam N-11) | 310 |
